{"source": "paper PMC5000626", "about": "(International Journal of Molecular Sciences, 2016)", "key": {"[1]": {"conditions": "cited from earlier work"}, "mMATE1 [2]": {"molecular_target": "T1, mMATE1 (Mus musculus, UniProt Q8K0H1)", "T1 sequence (Q8K0H1 1-567)": "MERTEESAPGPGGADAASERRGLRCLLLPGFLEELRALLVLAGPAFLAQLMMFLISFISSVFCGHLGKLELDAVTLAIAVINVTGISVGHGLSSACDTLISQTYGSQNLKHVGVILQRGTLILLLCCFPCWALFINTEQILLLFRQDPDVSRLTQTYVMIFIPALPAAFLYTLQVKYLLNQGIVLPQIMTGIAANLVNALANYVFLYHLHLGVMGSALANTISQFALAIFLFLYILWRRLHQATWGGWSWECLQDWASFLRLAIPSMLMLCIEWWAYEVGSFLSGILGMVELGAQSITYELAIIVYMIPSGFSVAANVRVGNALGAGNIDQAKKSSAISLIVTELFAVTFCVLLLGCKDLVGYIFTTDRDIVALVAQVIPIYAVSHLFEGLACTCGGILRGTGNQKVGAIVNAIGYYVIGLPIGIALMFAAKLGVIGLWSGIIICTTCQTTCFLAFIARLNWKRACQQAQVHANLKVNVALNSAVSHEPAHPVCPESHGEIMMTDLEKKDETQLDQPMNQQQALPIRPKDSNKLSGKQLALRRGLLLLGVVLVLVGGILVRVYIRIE", "assay": "cell-based"}, "LLC-PK1": {"system": "LLC-PK1", "conditions": "LLC-PK1 cells; cited from earlier work"}, "hMATE2-K [3]": {"molecular_target": "T2, hMATE2-K (Homo sapiens, UniProt Q86VL8)", "T2 sequence (Q86VL8 1-566 isoform Q86VL8-3)": "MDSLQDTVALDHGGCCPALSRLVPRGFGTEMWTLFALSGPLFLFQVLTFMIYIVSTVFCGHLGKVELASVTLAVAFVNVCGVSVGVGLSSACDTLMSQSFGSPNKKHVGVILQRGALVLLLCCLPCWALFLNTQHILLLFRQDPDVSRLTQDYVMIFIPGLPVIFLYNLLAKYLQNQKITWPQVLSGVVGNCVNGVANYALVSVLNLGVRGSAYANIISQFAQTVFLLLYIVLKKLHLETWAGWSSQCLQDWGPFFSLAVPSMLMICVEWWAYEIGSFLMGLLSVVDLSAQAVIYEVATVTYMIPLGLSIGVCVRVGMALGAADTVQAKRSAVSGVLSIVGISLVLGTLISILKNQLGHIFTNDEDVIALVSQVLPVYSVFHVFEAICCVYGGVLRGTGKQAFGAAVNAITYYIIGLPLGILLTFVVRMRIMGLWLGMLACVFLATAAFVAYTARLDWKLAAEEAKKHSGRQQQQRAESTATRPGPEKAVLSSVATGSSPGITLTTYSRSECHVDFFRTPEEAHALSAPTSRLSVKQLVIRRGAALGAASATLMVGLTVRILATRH", "assay": "cell-based", "experimental": "(§1) For transient expression, HEK293 cells were seeded on 24-well (2 × 10^5 cells/well) poly-D-lysine-coated plates (BD Biocoat, Franklin Lakes, NJ, USA) and transfected with hMATE1, hMATE2-K and mMATE1 cDNA containing plasmid vectors and empty vectors (pcDNA3.1(+) for hMATE1 and hMATE2-K, pFLAG for mMATE1) by using the LipofectAMINE 2000 Reagent (Life Technologies Corporation), according to the manufacturer’s instructions. The cells were used for uptake experiments at 48 h after transfection, while the empty vector-expressing cells were used as control.\n(§2) The cells were dissolved in 0.5 mL of 0.5 normality (N) sodium hydroxide (NaOH), and then, the radioactivity in 200 µL was determined using liquid scintillation counting following addition to 2 mL of Ultima Gold (PerkinElmer). The protein content of each NaOH solution was determined using a Bio-Rad Protein Assay Kit (Bio-Rad Laboratories, Hercules, CA, USA) by using bovine γ-globulin as a standard. The Km and Vmax values were calculated from the saturation curve using the Michaelis–Menten equation, V = Vmax[S]/(Km + [S]), with Kaleidagraph Version 4.00 (Synergy Software, Reading, PA, USA) after the nonspecific uptake values were subtracted."}, "hMATE1": {"molecular_target": "T3, hMATE1 (Homo sapiens, UniProt Q96FL8)", "T3 sequence (Q96FL8 1-570)": "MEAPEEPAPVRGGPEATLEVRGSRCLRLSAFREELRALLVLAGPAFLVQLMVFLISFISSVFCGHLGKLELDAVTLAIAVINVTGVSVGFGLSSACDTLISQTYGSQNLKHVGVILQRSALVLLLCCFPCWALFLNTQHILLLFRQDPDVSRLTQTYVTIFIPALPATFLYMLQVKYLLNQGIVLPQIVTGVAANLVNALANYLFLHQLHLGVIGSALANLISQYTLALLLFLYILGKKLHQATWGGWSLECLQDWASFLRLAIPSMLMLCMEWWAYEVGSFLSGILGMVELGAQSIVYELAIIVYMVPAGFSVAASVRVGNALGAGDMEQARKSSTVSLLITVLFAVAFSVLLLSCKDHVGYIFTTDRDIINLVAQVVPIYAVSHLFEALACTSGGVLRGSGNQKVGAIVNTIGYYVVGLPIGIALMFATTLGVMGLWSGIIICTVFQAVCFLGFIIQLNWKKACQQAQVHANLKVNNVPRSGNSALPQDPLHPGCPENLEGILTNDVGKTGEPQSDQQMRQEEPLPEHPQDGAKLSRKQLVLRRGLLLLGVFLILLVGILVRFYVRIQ", "assay": "[3H]dopamine uptake kinetics in HEK293 cells transiently expressing hMATE1", "type": "cell-based", "experimental": "as §1, §2"}, "hMATE2-K [4]": {"molecular_target": "T2, hMATE2-K", "conditions": "[3H]dopamine uptake, HEK293 cells expressing hMATE2-K", "experimental": "as §1, §2"}, "mMATE1 [5]": {"molecular_target": "T1, mMATE1", "conditions": "[3H]dopamine uptake, HEK293 cells expressing mMATE1", "experimental": "as §1, §2"}, "[6]": {"conditions": "patients with CML (imatinib also gastrointestinal stromal tumors), efficacy target for imatinib and nilotinib, safety limit for dasatinib"}}, "note": "Read-outs that look alike come from different tables or passages of the source."}
{"smiles": "Cc1nc(Nc2ncc(C(=O)Nc3c(C)cccc3Cl)s2)cc(N2CCN(CCO)CC2)n1", "note": "[Dasatinib, dasatinib]", "values": [{"measurement": "plasma trough concentration (Ctrough), clinical target", "setting": "[1]; [6]", "result": "≤ 2.5", "unit": "ng/mL"}, {"measurement": "plasma trough concentration (Ctrough), clinical target", "setting": "[1]; same targets in molar units", "result": "≤ 5", "unit": "nM"}, {"measurement": "IC50", "setting": "mMATE1 [2]", "result": "106 ± 7", "unit": "µM"}]}
{"smiles": "Fc1ccc(C(OCCN2CCN(CCCc3ccccc3)CC2)c2ccc(F)cc2)cc1", "note": "[GBR-12909]", "values": [{"measurement": "inhibition of outward transfer of synthesized dopamine", "setting": "LLC-PK1", "result": "failed to inhibit"}]}
{"smiles": "Cc1cn(-c2cc(NC(=O)c3ccc(C)c(Nc4nccc(-c5cccnc5)n4)c3)cc(C(F)(F)F)c2)cn1", "note": "[Nilotinib, nilotinib]", "values": [{"measurement": "IC50", "setting": "hMATE2-K [3]", "result": "> 100", "unit": "µM"}, {"measurement": "plasma trough concentration (Ctrough), clinical target", "setting": "[1]; [6]", "result": "> 761", "unit": "ng/mL"}, {"measurement": "plasma trough concentration (Ctrough), clinical target", "setting": "[1]; same targets in molar units", "result": "> 1400", "unit": "nM"}, {"measurement": "IC50", "setting": "mMATE1 [2]", "result": "> 100", "unit": "µM"}]}
{"smiles": "COC(=O)[C@H]1[C@@H](OC(=O)c2ccccc2)C[C@@H]2CC[C@H]1N2C", "note": "[cocaine]", "values": [{"measurement": "inhibition of outward transfer of synthesized dopamine", "setting": "LLC-PK1", "result": "failed to inhibit"}]}
{"smiles": "NCCc1ccc(O)c(O)c1", "note": "[dopamine]", "values": [{"measurement": "Km", "setting": "hMATE1; [3H]dopamine uptake at 1 min, HEK293 cells expressing hMATE1, mean ± S.E., n=3", "result": "560 ± 180", "unit": "µM"}, {"measurement": "Vmax", "setting": "hMATE1; [3H]dopamine uptake, HEK293 cells expressing hMATE1", "result": "3.71 ± 0.15", "unit": "nmol·mg·protein^−1·min^−1"}, {"measurement": "Vmax", "setting": "hMATE2-K [4]", "result": "7.69 ± 1.12", "unit": "nmol·mg·protein^−1·min^−1"}, {"measurement": "Vmax", "setting": "mMATE1 [5]", "result": "8.73 ± 0.08", "unit": "nmol·mg·protein^−1·min^−1"}]}
